Values after ≈ are worked out from the molar mass of the structure shown.
Key:
[1] = system: S. epidermidis (10) clinical isolates; assay: Susceptibility of clinical isolates (MIC); type: cell-based, Staphylococcus epidermidis
Procedure: (§1) Susceptibility testing of oxazolidinone-fluoroquinolone hybrids against various bacteria was performed by the broth microdilution method as outlined by the Clinical and Laboratory Standards Institute (CLSI). Three types of media, including cation-adjusted Mueller Hinton broth, Haemophilus Test Medium and cation-adjusted Mueller Hinton broth that contained 3%–5% lysed horse blood, were used to culture the corresponding bacteria. […] A final inoculum of 5 × 10^5 CFU/mL was used and plates were read after incubation for 16–24 h at 35 °C. […] Standard quality control strains (ATCC) were included throughout. Each determination was repeated in triplicate.

[2] = system: S. aureus (46) clinical isolates; assay: Susceptibility of clinical isolates (MIC); type: cell-based, Staphylococcus aureus
Procedure: as §1

[3] = system: E. faecium (47) clinical isolates; assay: Susceptibility of clinical isolates (MIC); type: cell-based, Enterococcus faecium
Procedure: as §1

[4] = system: MRSE; assay: MIC against drug-resistant strain; type: cell-based, S. epidermidis; conditions: Staphylococcus epidermidis, read-out: MIC
Procedure: (§2) 6 standard strains and 3 clinical isolates were used to the preliminary evaluation of in vitro antibacterial activities of oxazolidinone-fluoroquinolone hybrids.
as §1

[5] = system: S. pneumoniae (13) clinical isolates; assay: Susceptibility of clinical isolates (MIC); type: cell-based, Streptococcus pneumoniae
Procedure: as §1

[6] = system: E. coli (ATCC25922); assay: MIC, broth microdilution (CLSI), standard strain; type: cell-based; conditions: Escherichia coli, ATCC25922
From the text: (§3) 6 standard strains and 3 clinical isolates were used to the preliminary evaluation of in vitro antibacterial activities of oxazolidinone-fluoroquinolone hybrids. For the further evaluation of hybrids OBP-4 and OBP-5, 263 clinical isolates including S. aureus (46), S. haemolyticus(32), S. epidermidis (10), E. faecalis (72), E. faecium (47), S. pneumoniae (13), H. parasuis (34), S. suis (9), and 8 resistant strains including MRSA, MRSE, CIP-resistant S. aureus and S. haemolyticus, VAN and quinolone-resistant S. pneumoniae, LZD-resistant E. faecalis, LZD/VAN and quinolone-resistant E. faecium were collected and tested.
(§4) Susceptibility testing of oxazolidinone-fluoroquinolone hybrids against various bacteria was performed by the broth microdilution method as outlined by the Clinical and Laboratory Standards Institute (CLSI). Three types of media, including cation-adjusted Mueller Hinton broth, Haemophilus Test Medium and cation-adjusted Mueller Hinton broth that contained 3%–5% lysed horse blood, were used to culture the corresponding bacteria. All compounds including comparator drugs were dissolved in an appropriate solvent at a concentration of 2.048 mg/mL and then serially diluted two-fold to provide the required concentrations. A final inoculum of 5 × 10^5 CFU/mL was used and plates were read after incubation for 16–24 h at 35 °C. […] Standard quality control strains (ATCC) were included throughout. Each determination was repeated in triplicate.

[7] = system: S. pneumoniae (ATCC49619); assay: MIC, broth microdilution (CLSI), standard strain; type: cell-based; conditions: Streptococcus pneumoniae
From the text: as §3, §4

[8] = system: P. Aeruginosa (ATCC27853); assay: MIC, broth microdilution (CLSI), standard strain; type: cell-based; conditions: Pseudomonas aeruginosa, ATCC27853
From the text: as §3, §4

[9] = system: H. influenzae (ATCC49247); assay: MIC, broth microdilution (CLSI), standard strain; type: cell-based; conditions: Haemophilus influenzae
From the text: as §3, §4

[10] = system: E. faecalis (ATCC29212); assay: MIC, broth microdilution (CLSI), standard strain; type: cell-based; conditions: Enterococcus faecalis; E. faecalis (ATCC29212); read-out: MIC
From the text: as §3, §4

[11] = system: S. aureus (ATCC29213); assay: MIC, broth microdilution (CLSI), standard strain; type: cell-based; conditions: Staphylococcus aureus
From the text: as §3, §4

[12] = system: S. agalactiae^R (13B317), levofloxacin-resistant S. agalactiae; assay: MIC, broth microdilution (CLSI), clinical isolate; type: cell-based; conditions: Streptococcus agalactiae; levofloxacin-resistant S. agalactiae (13B317)
From the text: as §3, §4

[13] = system: MRSA (13B262); assay: MIC, broth microdilution (CLSI), clinical isolate; type: cell-based; conditions: Staphylococcus aureus
From the text: as §3, §4

[14] = system: MRSA; assay: MIC against drug-resistant strain; type: cell-based; conditions: Staphylococcus aureus, read-out: MIC
Procedure: as §2, §1

[15] = system: VAN and quinolone-resistant E. faecium; assay: MIC against drug-resistant strain; type: cell-based; conditions: Enterococcus faecium; E. faecium, VAN and quinolone-resistant; read-out: MIC
Procedure: as §2, §1

[16] = system: VAN and quinolone-resistant S. pneumoniae; assay: MIC against drug-resistant strain; type: cell-based; conditions: Streptococcus pneumoniae; S. pneumoniae, VAN and quinolone-resistant; read-out: MIC
Procedure: as §2, §1

[17] = system: LZD and quinolone-resistant E. faecium; assay: MIC against drug-resistant strain; type: cell-based; conditions: Enterococcus faecium; E. faecium, LZD and quinolone-resistant; read-out: MIC
Procedure: as §2, §1

[18] = system: CIP-resistant S. aureus; assay: MIC against drug-resistant strain; type: cell-based; conditions: Staphylococcus aureus; S. aureus, CIP-resistant; read-out: MIC
Procedure: as §2, §1

[19] = system: CIP-resistant S. haemolyticus; assay: MIC against drug-resistant strain; type: cell-based; conditions: Staphylococcus haemolyticus; S. haemolyticus, CIP-resistant; read-out: MIC
Procedure: as §2, §1

[20] = system: S. haemolyticus (32) clinical isolates; assay: Susceptibility of clinical isolates (MIC); type: cell-based, Staphylococcus haemolyticus
Procedure: as §1

[21] = system: LZD-resistant E. faecalis; assay: microbe, parasite or virus in culture; type: cell-based; conditions: Enterococcus faecalis
Procedure: as §2, §1

[22] = E. faecium clinical isolates, CLSI criteria
[23] = S. haemolyticus clinical isolates, CLSI criteria

`CC(=O)NC[C@H]1CN(c2ccc(N3CCOCC3)c(F)c2)C(=O)O1` [LZD, linezolid, reference compound] was tested, and the “CLSI %S (susceptible)” value ([1]; S. epidermidis clinical isolates, CLSI criteria) was 100.0/- %, the MIC50 ([1]; Staphylococcus epidermidis, S. epidermidis, 10 clinical isolates, read-out: MIC50) was 1 µg/mL (≈ 2.96 µM) and the MIC90 ([1]; Staphylococcus epidermidis, S. epidermidis, 10 clinical isolates, read-out: MIC90) was 1 µg/mL (≈ 2.96 µM). The MIC ([1]; Staphylococcus epidermidis, S. epidermidis, 10 clinical isolates, read-out: MIC Range) was 0.5 to 1 µg/mL (≈ 1.48 to 2.96 µM), the “CLSI %S (susceptible)” value ([2]; S. aureus clinical isolates, CLSI criteria) was 100.0/- % and the MIC50 ([2]; Staphylococcus aureus, S. aureus, 46 clinical isolates, read-out: MIC50) was 2 µg/mL (≈ 5.93 µM). For the same molecule, the MIC90 ([2]; Staphylococcus aureus, S. aureus, 46 clinical isolates, read-out: MIC90) was 2 µg/mL (≈ 5.93 µM), the MIC ([2]; Staphylococcus aureus, S. aureus, 46 clinical isolates, read-out: MIC Range) was 0.5 to 2 µg/mL (≈ 1.48 to 5.93 µM) and the “CLSI %R (resistant)” value [3, 22] was 13.8%. For the same molecule, the “CLSI %S (susceptible)” value [3, 22] was 82.8%, the “MIC Range” value ([3]; E. faecium, 47 clinical isolates) was 0.5 to 16 µg/mL and the MIC50 ([3]; Enterococcus faecium, E. faecium, 47 clinical isolates, read-out: MIC50) was 2 µg/mL (≈ 5.93 µM). For the same molecule, the MIC90 ([3]; Enterococcus faecium, E. faecium, 47 clinical isolates, read-out: MIC90) was 4 µg/mL (≈ 11.9 µM), the MIC [4] was 0.25 µg/mL (≈ 0.741 µM) and the “CLSI %S (susceptible)” value ([5]; S. pneumoniae clinical isolates, CLSI criteria) was 76.9/- %. The “MIC Range” value ([5]; S. pneumoniae, 13 clinical isolates) was 0.5 to 4 µg/mL, the MIC50 ([5]; Streptococcus pneumoniae, S. pneumoniae, 13 clinical isolates, read-out: MIC50) was 0.5 µg/mL (≈ 1.48 µM) and the MIC90 ([5]; Streptococcus pneumoniae, S. pneumoniae, 13 clinical isolates, read-out: MIC90) was 0.5 µg/mL (≈ 1.48 µM). The MIC [6] was 128 µg/mL (≈ 379 µM), the MIC [7] was 1 µg/mL (≈ 2.96 µM) and the MIC [8] was 128 µg/mL (≈ 379 µM). For the same molecule, the MIC [9] was 8 µg/mL (≈ 23.7 µM), the MIC [10] was 4 µg/mL (≈ 11.9 µM) and the MIC [11] was 4 µg/mL (≈ 11.9 µM). The MIC [12] was 1 µg/mL (≈ 2.96 µM), the MIC [13] was 4 µg/mL (≈ 11.9 µM) and the MIC [14] was 4 µg/mL (≈ 11.9 µM). For the same molecule, the MIC [15] was 2 µg/mL (≈ 5.93 µM), the MIC [16] was 0.5 µg/mL (≈ 1.48 µM) and the MIC [17] was 16 µg/mL (≈ 47.4 µM). The MIC [18] was 2 µg/mL (≈ 5.93 µM), the MIC [19] was 8 µg/mL (≈ 23.7 µM) and the “CLSI %R (resistant)” value [20, 23] was 3.8%. For the same molecule, the “CLSI %S (susceptible)” value [20, 23] was 96.2%, the MIC50 ([20]; Staphylococcus haemolyticus, S. haemolyticus, 32 clinical isolates, read-out: MIC50) was 0.5 µg/mL (≈ 1.48 µM) and the MIC90 ([20]; Staphylococcus haemolyticus, S. haemolyticus, 32 clinical isolates, read-out: MIC90) was 2 µg/mL (≈ 5.93 µM). For the same molecule, the MIC ([20]; Staphylococcus haemolyticus, S. haemolyticus, 32 clinical isolates, read-out: MIC Range) was 0.125 to 8 µg/mL (≈ 0.371 to 23.7 µM) and the MIC [21] was 8 µg/mL (≈ 23.7 µM).

Reference: publication PMC6514978, “Synthesis, Antibacterial Activities, Mode of Action and Acute Toxicity Studies of New Oxazolidinone-Fluoroquinolone Hybrids” (Molecules, 2019)
